Source: patent US9447054B2, “Anticancer supplement agent including benzo[D]oxazol derivative as effective ingredient” (KOREA INSTITUTE OF RADIOLOGICAL & MEDICAL SCIENCES, priority 2014, dated 2016)

What was measured:
[1] = molecular target: T1, Nrf2 protein (Homo sapiens, UniProt Q16236); test: Western blot of Nrf2 protein in tBHQ-treated lung cancer cells; format: cell-based; settings: 5 μM or 10 μM, 2 hours, FIG. 5
T1 construct: endogenous in cells
T1 sequence (Q16236 1-605): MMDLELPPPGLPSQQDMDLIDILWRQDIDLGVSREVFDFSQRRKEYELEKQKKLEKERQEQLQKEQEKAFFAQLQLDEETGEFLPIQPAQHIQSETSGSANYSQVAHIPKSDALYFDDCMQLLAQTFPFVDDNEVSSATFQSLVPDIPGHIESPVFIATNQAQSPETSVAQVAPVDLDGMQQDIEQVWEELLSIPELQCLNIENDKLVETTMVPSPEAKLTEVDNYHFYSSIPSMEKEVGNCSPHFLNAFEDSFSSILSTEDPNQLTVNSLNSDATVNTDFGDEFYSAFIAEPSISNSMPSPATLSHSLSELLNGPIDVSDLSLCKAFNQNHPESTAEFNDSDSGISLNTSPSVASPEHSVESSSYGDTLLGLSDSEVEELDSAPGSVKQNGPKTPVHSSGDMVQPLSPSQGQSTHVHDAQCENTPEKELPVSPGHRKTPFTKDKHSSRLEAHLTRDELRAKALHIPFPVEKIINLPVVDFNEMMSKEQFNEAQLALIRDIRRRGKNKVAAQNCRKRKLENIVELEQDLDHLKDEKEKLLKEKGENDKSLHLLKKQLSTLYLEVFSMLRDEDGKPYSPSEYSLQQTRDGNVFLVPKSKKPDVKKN
Protocol: (§1) By using a western blot, it was confirmed whether 2-(5-bromonaphthalene-1-yl)benzo[d]oxazole-5-amine (Derivative #1), which is a Nrf2 inhibitor, has targeted a Nrf2 protein and its downstream antioxidant enzyme heme oxygenase (HO)-1, based on the inhibitory activity of the ARE-pGL3 luciferase.
(§2) The lung cancer cells were treated with 2-(5-bromonaphthalene-1-yl)benzo[d]oxazole-5-amine (Derivative #1) in a concentration of about 5 μM or about 10 μM, and 2 hours later, the protein expression was analyzed to measure amounts of Nrf2 and HO-1 proteins, which were increased by tBHQ treatment.
(§3) First, the cells treated with 2-(5-bromonaphthalene-1-yl)benzo[d]oxazole-5-amine (Derivative #1) were obtained, and then, cytosolic fractions were obtained therefrom by using a method commonly used in the art.
(§4) The cytosolic fractions were separated by electrophoresis using 10% gradient SDS-PAGE, and then, were transferred to a nitrocellulose membrane (BioRad, Hercules, Calif., USA). The membrane was blocked with 5% skim milk, and then, a reaction with primary antibodies, e.g., anti-Nrf2 (Abcam, USA) and an HO-1 antibody (Oncogene Research Products, USA), was allowed. […]

[2] = system: colorectal cancer cells (HCT116); test: Colony-forming assay with gamma irradiation, colorectal cancer cells; format: cell-based, human; settings: HCT116, 1 μM to 10 μM for 2 hours, gamma radiation, 7 days, FIG. 11
Protocol: (§5) Lung cancer cells (H1299, ATCC, CRL-5803™), brain cancer cells (U87MG, ATCC, HTB-14™ human glioblastoma), breast cancer cells (MDA-MB231, ATCC, HTB-26™ human breast adenocarcinoma), and colorectal cancer cells (HCT116, ATCC, CCL-247™ human colorectal carcinoma) were each inoculated in each well of a 96-well plate containing Rosewell Park Memorial Institute medium (RPMI) 1640 enriched with 10% FBS, 100 μg/ml of streptomycin, and 100 unit/ml of penicillin. Then, these cells were each treated with 2-(5-bromonaphthalene-1-yl)benzo[d]oxazole-5-amine (Derivative #1) for 2 hours in a concentration of 1 μM to 10 μM, were irradiated using gamma radiation according to radiation dose, and were cultured for 7 days under conditions of 5% CO2 and a temperature of 37° C. The cultured cells were washed out with phosphate buffered saline (PBS), and then, were stained with a mixture of 1% methylene blue and 100% methanol. Afterwards, a number of colony-forming cells was counted, and all the treatment above were repeatedly performed 3 times.

[3] = system: lung cancer cells (H1299); test: Colony-forming assay with gamma irradiation, lung cancer cells; format: cell-based; settings: H1299, 1 μM to 10 μM for 2 hours, gamma radiation, 7 days, FIG. 8
Protocol: as §5

[4] = system: lung cancer cells (H1299); test: ROS production by DCF-DA staining and FACS, combined with irradiation; format: cell-based
Protocol: The lung cancer cells (H1299) that were cultured in the same manner as in Example 1 were treated with dihydrodichlorofluorescein diacetate (DCF-DA, Sigma, USA) and were subjected to fluorescence staining. The stained cells were then treated with 2-(5-bromonaphthalene-1-yl)benzo[d]oxazole-5-amine (Derivative #1) for 2 hours in a concentration of 5 μM or 10 μM, and 5 Gy of irradiation. Afterwards, an increase in ROS production upon inhibition of Nrf2 was analyzed by FACS.
In addition, in order to confirmed whether the values measured by FACS analysis refer to the ROS production, the lung cancer cells (H1299) were treated with 2 mM of N-acetyl-L-cysteine (NAC), which is a ROS inhibitor, and then, were treated in combination with 2-(5-bromonaphthalene-1-yl)benzo[d]oxazole-5-amine (Derivative #1) in a concentration of 10 μM and irradiation. As a result, it was confirmed that the ROS production was inhibited.

[5] = system: lung cancer cell strain (H1299); test: CCK-8 analysis after derivative plus doxorubicin (anticancer agent sensitivity); format: cell-based; settings: 48 hours, FIG. 13
Protocol: In order to confirm whether the above-described benzo[d]oxazole derivative that increases the apoptotic effects of ROS also have such apoptotic effects when the benzo[d]oxazole derivative is used in combination with, other than radiation, an anticancer agent to produce ROS, the synthesized benzo[d]oxazole derivative was treated in combination with doxorubicin, which is an anticancer agent.
The lung cancer cell strain (H1299) was treated with each of the synthesized benzo[d]oxazole derivatives (Derivatives #1 to #10) for 2 hours in a concentration of 10 μM, and then, were treated with doxorubicin in a concentration of 150 nM. After 48 hours of the treatment, CCK-8 for the determination of cell viability was used to measure the lung cancer cells that were died by apoptosis.

[6] = system: breast cancer cells (MDA-MB231); test: Colony-forming assay with gamma irradiation, breast cancer cells; format: cell-based, human; settings: MDA-MB231, 1 μM to 10 μM for 2 hours, gamma radiation, 7 days, FIG. 10
Protocol: as §5

[7] = system: lung cancer cells (H1299); test: CCK-8 cell viability analysis (cytotoxicity of the derivative alone); format: cell-based; settings: 1 μM, 5 μM and 10 μM, FIG. 2
From the text: (§6) Here, in order to confirm that the inhibitory activity of luciferase was caused by an Nrf2 inhibitor, rather than by apoptosis of the cells, cell counting kit-8 (CCK-8) (Dojindo, Japan) for the determination of cell viability and a spectroscopic device (Labsystems, USA) were used to measure absorbance values of the cells at a wavelength of 480 nm.
as §6, with “by” for “by an”, “inhibitors, i.e., Derivative #2 to #10,” for “inhibitor,”, “CCK-8” for “cell counting kit-8 (CCK-8)”

[8] = system: brain cancer cells (U87MG); test: Colony-forming assay with gamma irradiation, brain cancer cells; format: cell-based, human; settings: 1 μM to 10 μM for 2 hours, gamma radiation, 7 days, FIG. 9
Protocol: as §5

[9] = system: Nrf2; test: ARE-pGL3 (Nrf2-responsive) luciferase reporter analysis in tBHQ-treated lung cancer cells; format: cell-based
Protocol: Lung cancer cells (H1299) purchased from American Type Culture Collection (ATCC, CRL-5803™) were cultured in Dulbecco's modified Eagle's medium (DMEM) enriched with 10% fetal bovine serum (FBS), 100 μg/ml of streptomycin, and 100 unit/ml of penicillin, under conditions of 5% CO2 and a temperature of 37° C.
Then, the cells were transformed by using Lipofectamine 2000 (In vitrogen, Life technologies, USA) (i.e., a plasmid transfection reagent used in DMEM) so that an antioxidant response element (ARE)-pGL3 luciferase plasmid to which an Nrf2 transcription factor can bind was introduced to the cells, according to the manufacturer's instructions.
About 20,000 of the transformed cells were inoculated in each well of a 96-well plate, and then, the cells were cultured for 24 hours under the same conditions described above. Afterwards, tertiary butylhydroquinone (tBHQ) that activates ARE was added to each well. Accordingly, it was confirmed that activity of luciferase was increased at least about 3 times as large as activity of luciferase in cells that were not treated with tBHQ.
Next, the tBHQ-treated cells were additionally treated with 2-(5-bromonaphthalene-1-yl)benzo[d]oxazole-5-amine (ChemBridge, cat#5721754, San Diego, Calif., USA) (Derivative #1) in concentration of 1 μM, 5 μM, and 10 μM, and then, were incubated for 18 hours. […]

[10] = system: heme oxygenase (HO)-1; test: Western blot of HO-1 protein in tBHQ-treated lung cancer cells; format: cell-based; settings: 5 μM or 10 μM, 2 hours, FIG. 5
Protocol: as §1, §2, §3, §4

With `Nc1ccc2oc(-c3cccc4c(Br)cccc34)nc2c1` [Derivative #1, 2-(5-bromonaphthalene-1-yl)benzo[d]oxazole-5-amine] the “amount of Nrf2 protein increased by tBHQ treatment” value [1] was “reduced depending on the concentration”, the “apoptotic effects on cancer cells by irradiation (colony-forming cells)” value (from here on “apoptotic effects on cancer cells”) [2] was “increased apoptotic effects” and the “apoptotic effects on cancer cells” value [3] was “increased apoptotic effects”. The “ROS production relative to 5 Gy of irradiation only” value ([4]; H1299, 5 μM for 2 hours plus 5 Gy irradiation) was “about 3.5 times”, the “ROS production relative to 5 Gy of irradiation only” value ([4]; H1299, 10 μM for 2 hours plus 5 Gy irradiation) was about 4.6 times and the “apoptotic cell death relative to control group” value ([5]; H1299, derivative 10 μM for 2 hours then doxorubicin 150 nM) was “about 3.7 times”. For the same molecule, the “apoptotic effects on cancer cells” value [6] was “increased apoptotic effects”, the “cytotoxicity (CCK-8 viability)” value [7] was “no cytotoxicity” and the “apoptotic effects on cancer cells” value [8] was “increased apoptotic effects”. The “inhibitory activity of ARE-responsive luciferase” value ([9]; tBHQ-treated H1299, 1 μM, 5 μM and 10 μM, 18 hours, FIG. 1) was “dependent upon concentration” and the “amount of HO-1 protein increased by tBHQ treatment” value [10] was “reduced depending on the concentration”.

`CC(=O)N[C@@H](CS)C(=O)O` [NAC, N-acetyl-L-cysteine, reference compound] was tested, and the “ROS production after ROS inhibitor treatment” value ([4]; H1299, 2 mM NAC, then Derivative #1 10 μM plus irradiation) was “inhibited”.

With `COc1cccc2c1C(=O)c1c(O)c3c(c(O)c1C2=O)C[C@@](O)(C(=O)CO)C[C@@H]3O[C@H]1C[C@H](N)[C@H](O)[C@H](C)O1` [doxorubicin, reference compound] the “apoptotic cell death relative to control group” value ([5]; H1299, doxorubicin 150 nM only) was “about 1.35 times”.

For `CC(C)(C)c1cc(O)ccc1O` [tBHQ, tertiary butylhydroquinone, reference compound], the “activity of luciferase relative to cells not treated with tBHQ” value ([9]; ARE-pGL3 transformed H1299 cells, tBHQ added to each well) was “at least 3 times”.
